Data taken from patent US20080221361A1, “Ionic Liquids” (BIONIQS LIMITED, priority 2005, published 2008).

Key:
Format in all cases: physicochemical
Details in all cases: product dried to water content between about 0.2 and 1% w/w
[1] = Density, mass of a measured volume of the liquid
Protocol: (§1) Where the starting materials were both liquids, no solvent was used for the synthesis. Viscosities were measured using an AND™ SV10 vibrational viscometer. Refractive indices were obtained using a Mettler Toledo Refracto™ 30 portable refractometer. Densities were measured simply by determining the mass of a measured volume of the liquid. All products were dried prior to characterisation, to a water content of between about 0.2 and 1% w/w.

[2] = Viscosity, AND SV10 vibrational viscometer
Protocol: as §1

[3] = Refractive index, Mettler Toledo Refracto 30 portable refractometer
Protocol: as §1

Molecule | Density (g/cm^3) (error ± ~2%) [1] | Viscosity at 25° C. (centipoise) (error ± ~5%) [2] | Refractive index (error ± ~2%) [3]
CC(=O)O.COCCCN [3-methoxypropylammonium acetate] | 1.04 g/mL | 640 centipoise | 1.447
COCCCN.O=C(O)CO [3-methoxypropylammonium glycolate] | 1.17 g/mL | 2670 centipoise | 1.470
CC(=O)O.CCN(CC)CCO [N,N-diethylethanolammonium acetate] | 1.00 g/mL | 55 centipoise | 1.453
CCN(CC)CCO.O=CO [N,N-diethylethanolammonium formate] | 1.04 g/mL | 395 centipoise | 1.462
CCN(CC)CCO.O=C(O)CO [N,N-diethylethanolammonium glycolate] | 1.11 g/mL | 740 centipoise | 1.466
CCCCCCCC(=O)O.CCN(CC)CCO [N,N-diethylethanolammonium octanoate] | 0.96 g/mL | 46 centipoise | 1.451
CCC(=O)O.CCN(CC)CCO [N,N-diethylethanolammonium propionate] | 0.98 g/mL | 42 centipoise | 1.450
CC(=O)O.CCN(CC)CC(O)CO (stereo not drawn) [N,N-diethylpropane-2,3-diolammonium acetate] |  | 3100 centipoise | 
CC(=O)O.COCCN(C)C [N,N-dimethyl-2-methoxyethylammonium acetate] |  |  | 1.426
CCS(=O)(=O)O.COCCN(C)C [N,N-dimethyl-2-methoxyethylammonium ethanesulphonate] |  |  | 1.449
COCCN(C)C.O=C(O)CO [N,N-dimethyl-2-methoxyethylammonium glycolate] |  |  | 1.459
COCCN(C)C.CS(=O)(=O)O [N,N-dimethyl-2-methoxyethylammonium methanesulphonate] |  |  | 1.449
CCC(=O)O.COCCN(C)C [N,N-dimethyl-2-methoxyethylammonium propionate] |  |  | 1.422
COCCN(C)C.NS(=O)(=O)O [N,N-dimethyl-2-methoxyethylammonium sulphamate] |  |  | 1.472
CC(=O)O.CN(C)CCOCCO [N,N-dimethyl-N-[(2-hydroxyethoxy)ethyl]ammonium acetate] | 1.05 g/mL | 48 centipoise | 1.45
CC(=O)O.CN(C)CCCO [N,N-dimethylpropanolammonium acetate] | 1.03 g/mL | 77 centipoise | 1.451

Molecule | Density (g/cm^3) (error ± ~2%) [1] | Viscosity at 25° C. (centipoise) (error ± ~5%) [2] | Refractive index (error ± ~2%) [3]
CN(C)CCCO.O=CO [N,N-dimethylpropanolammonium formate] | 1.07 g/mL | 132 centipoise | 1.460
CN(C)CCCO.O=C(O)CO [N,N-dimethylpropanolammonium glycolate] | 1.14 g/mL | 3320 centipoise | 1.472
CCC(=O)O.CN(C)CCCO [N,N-dimethylpropanolammonium propionate] | 0.99 g/mL | 52 centipoise | 1.441
CC(=O)O.CCCCNCCO [N-butylethanolammonium acetate] | 1.04 g/mL | 365 centipoise | 1.455
CCCCNCCO.O=CO [N-butylethanolammonium formate] | 1.04 g/mL | 376 centipoise | 1.462
CCCCNCCO.O=C(O)CO [N-butylethanolammonium glycolate] | 1.08 g/mL | 800 centipoise | 1.464
CCCCCCCC(=O)O.CCCCNCCO [N-butylethanolammonium octanoate] |  | 388 centipoise | 1.456
CCC(=O)O.CCCCNCCO [N-butylethanolammonium propionate] | 1.00 g/mL |  | 1.457
CC(=O)O.COCCN(C)CCOC [N-methyl-bis(2-methoxyethyl)ammonium acetate] |  |  | 1.423
COCCN(C)CCOC.O=C(O)CO [N-methyl-bis(2-methoxyethyl)ammonium glycolate] |  |  | 1.452
CCC(=O)O.COCCN(C)CCOC [N-methyl-bis(2-methoxyethyl)ammonium propionate] |  |  | 1.423
CC(=O)O.CCCNCCO [N-propylethanolammonium acetate] | 1.04 g/mL | 1310 centipoise | 1.459
CCC(=O)O.CCCNCCO [N-propylethanolammonium propionate] | 1.02 g/mL | 483 centipoise | 1.456
N,N-dimethyl-2-methoxyethylammonium octanoate | 0.93 g/mL | 13.5 centipoise | 1.429
N-methyl-bis(2-methoxyethyl)ammonium octanoate |  |  | 1.431
